Source: patent publication US5332733A, “Heterocyclically substituted piperazinoakylbenzoxazine and piperazinoalkylbenzothiazine compounds, processes for preparing them, and medicaments containing them” (Kali-Chemie Pharma GmbH, priority 1990, dated 1994)

Tests used:
[1] = target: T1, cyclooxygenase (Mus musculus, UniProt P22437); assay: In vitro cyclooxygenase inhibition, release of 6-keto-PGF1α from zymosan-stimulated peritoneal macrophages; assay type: cell-based; conditions: zymosan-stimulated mouse peritoneal macrophage cells, 10^-5 mole/l
T1 construct: A cell suspension containing peritoneal cells from male mice 8-10 weeks old was obtained in a known manner; endogenous in cells; host or cells: mouse peritoneal macrophages (primary, adherent)
T1 sequence (P22437 27-602): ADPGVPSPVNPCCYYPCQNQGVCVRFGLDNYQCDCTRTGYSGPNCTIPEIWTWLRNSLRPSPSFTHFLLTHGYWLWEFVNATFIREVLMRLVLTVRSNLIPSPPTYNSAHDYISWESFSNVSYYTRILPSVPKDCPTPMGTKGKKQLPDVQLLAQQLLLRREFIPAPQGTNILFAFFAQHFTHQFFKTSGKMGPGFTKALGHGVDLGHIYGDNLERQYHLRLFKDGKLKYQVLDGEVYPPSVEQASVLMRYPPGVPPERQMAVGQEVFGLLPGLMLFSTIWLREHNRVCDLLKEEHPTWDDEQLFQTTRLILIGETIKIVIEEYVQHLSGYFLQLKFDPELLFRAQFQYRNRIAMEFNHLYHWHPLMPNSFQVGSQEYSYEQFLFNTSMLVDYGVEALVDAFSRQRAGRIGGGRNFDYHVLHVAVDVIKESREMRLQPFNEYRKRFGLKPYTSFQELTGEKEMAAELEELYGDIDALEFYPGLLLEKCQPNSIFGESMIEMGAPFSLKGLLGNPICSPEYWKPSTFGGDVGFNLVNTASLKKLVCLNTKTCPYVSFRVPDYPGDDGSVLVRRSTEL
Text: (§1) 5. In Vitro Determination of Cyclooxygenase Inhibition And 5-lipoxygenase Inhibition.
(§2) After a cell is activated, arachidonic acid contained in cell membranes is metabolized in two ways. Leucotrienes, inter alia leucotriene C4, are formed due to the action of the enzyme 5-lipoxygenase (=5-LO), and prostanoids are formed due to the action of the enzyme cyclooxygenase (=CO). In in vitro systems these metabolites are secreted from the cell.
(§3) To evaluate the cyclooxygenase-inhibiting and 5-lipoxygenase-inhibiting properties of the test substances, their inhibitory activity on the biosynthesis of the arachidonic acid derivatives leucotriene C4 (=LTC4) and 6-keto-prostaglandin F1α (=6-keto-PGF1α) was determined in vitro on mouse peritoneal macrophage cells. For this purpose the LTC4 and 6-keto-PGF1α contents of a mouse peritoneal macrophage cell culture medium were determined by zymosan stimulation as described by Scott et al. (J. Exp. Med. 152 (1980), 324-335) and by Fradin et al., (Prostaglandins, 33 (1987), 579-589).
(§4) A cell suspension containing peritoneal cells from male mice 8-10 weeks old was obtained in a known manner. A solution marketed under the designation RPMI 1640 (Manufactured by Gibco) was used as the cell culture medium, to which heparin (10 international units/ml) and antibiotics were added according to the procedure of Bonney et al. (Biochem. J. 176 (1978) 422-433). The cell suspension was adjusted to a cell concentration of 10^6 cells per ml and distributed uniformly on titer dishes containing 24 1-ml titer cells (wells). These were kept for two hours in a humidified incubator filled with air enriched with 7% CO2. Cells not adhering to the titer well walls were then removed by washing. The remaining macrophage cells adhering to the walls were incubated for about 12 hours in a suspension medium to which 0.1% of bovine serum albumin (BSA=Bovine Serum Albumin) was added. The suspension medium was then replaced by a Hanks salt solution (=Hanks Balanced Salt Solution=HBSS) with 10 mmoles of HEPES (=hydroxyethylpiperazinoethanesulfonic acid) to which a 0.1% strength solution of the test substances in aqueous, 1% strength dimethylformamide or only the solvent had been added. After 15 minutes the arachidonic acid metabolism was stimulated by adding […] of zymosan (=glycoprotein mixture isolated from cell walls of beer yeast, Saccharomyces cerevisiae, Manufactured by Sigma Chemical Co., Munich) per titre cell. After 2 hours samples of the respective supernatant liquid in each cell were examined for their 6-keto-PGF1α and LTC4 contents by an enzyme immunoassay (=EIA). This EIA is carried out following the method of Pradelles et al. (Analytical Chem. 57 (1985), 1170-1173). The determination of LTC4 and the determination of 6-keto-PGF1α were each carried out on suitable dilutions of the samples (1:50 to 1:250 for the LTC4 determination and 1:250 to 1:1,250 for the 6-keto-PGF1α determination) in comparison with a comparative scale. To determine the inhibiting effect of a 10^-5 molar concentration of the compounds, the amounts of reference eicosanoid were determined, and the inhibiting effect was calculated therefrom in % inhibition compared to the measurements of the zymosan controls.

[2] = target: T2, 5-lipoxygenase (Mus musculus, UniProt P48999); assay: In vitro 5-lipoxygenase inhibition, release of LTC4 from zymosan-stimulated peritoneal macrophages; assay type: cell-based; conditions: zymosan-stimulated mouse peritoneal macrophage cells, 10^-5 mole/l
T2 construct: A cell suspension containing peritoneal cells from male mice 8-10 weeks old was obtained in a known manner; endogenous in cells; host or cells: mouse peritoneal macrophages (primary, adherent)
T2 sequence (P48999 1-674): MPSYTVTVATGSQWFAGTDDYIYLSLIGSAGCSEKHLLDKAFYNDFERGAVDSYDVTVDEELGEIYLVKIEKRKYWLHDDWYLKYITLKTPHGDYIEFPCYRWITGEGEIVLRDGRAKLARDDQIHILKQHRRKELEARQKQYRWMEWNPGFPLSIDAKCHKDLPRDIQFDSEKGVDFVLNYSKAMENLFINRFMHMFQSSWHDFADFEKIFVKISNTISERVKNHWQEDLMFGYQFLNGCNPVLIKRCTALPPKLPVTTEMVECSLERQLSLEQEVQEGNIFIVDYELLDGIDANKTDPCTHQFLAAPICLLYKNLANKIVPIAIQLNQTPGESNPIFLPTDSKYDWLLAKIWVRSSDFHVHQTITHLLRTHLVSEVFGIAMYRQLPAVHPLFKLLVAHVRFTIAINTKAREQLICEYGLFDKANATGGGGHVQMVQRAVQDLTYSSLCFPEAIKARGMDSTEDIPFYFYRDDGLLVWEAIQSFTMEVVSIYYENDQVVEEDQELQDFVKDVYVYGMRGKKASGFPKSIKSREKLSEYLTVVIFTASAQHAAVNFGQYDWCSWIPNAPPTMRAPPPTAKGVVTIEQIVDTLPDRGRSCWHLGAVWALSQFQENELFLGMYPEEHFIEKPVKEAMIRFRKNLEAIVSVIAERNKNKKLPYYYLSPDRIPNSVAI
Text: as §1, §2, §3, §4

SMILES	% inhibition upon release of 6-keto-PGF1α [1] [%]	% inhibition upon release of LTC4 [2] [%]
Cc1ccnc(N2CCN(CCCC3Sc4ccccc4NC3=S)CC2)c1 (stereo not shown) [Example 11]	0	42
O=C1Nc2ccccc2SC1CCCN1CCN(c2ccc(Cl)cn2)CC1 (stereo not shown) [Example 15]	46	9
Cc1ccnc(N2CCN(CCCCC3Oc4ccccc4NC3=O)CC2)c1 (stereo not shown) [Example 7]	17	46
Cc1ccnc(N2CCN(CCCC3Oc4ccccc4NC3=O)CC2)c1 (stereo not shown) [Example 9]	32	65
Cc1ccnc(N2CCN(CCCCC3Sc4ccccc4NC3=O)CC2)c1 (stereo not shown) [Example 1, 2-{4-[4-(4-methylpyridin-2-yl)-piperazin-1-yl]butyl}-2H-1,4-benzothiazine-3(4H)-one]	27	48
